From patent publication US20100227806A1, “Use Of A Ghrelin Agonist To Improve Catabolic Effects Of Glucocorticoid Treatment” (priority 2006, published 2010)

Key:
[1] = Effects of pharmacological treatments on growth parameters in dexamethasone-treated young rats; format: in vivo, Sprague-Dawley rats; conditions: for Final Body Weight: prepubertal male rats, dexamethasone 40 μg/kg ip daily from day 23, A 80 nmoles/kg sc three times daily from day 30; for Final Body Weight / Final Nose-Anal Length / Lee Obesity Index / Growth Rate / Epididymal Fat Pads: mean ± SEM of eight animals; for Final Nose-Anal Length / Lee Obesity Index / Growth Rate / Epididymal Fat Pads: same regimen; for Growth Rate: slope of growth curve; for Epididymal Fat Pads: weight at sacrifice
Experimental: (§1) Thirty-two prepubertal male Sprague-Dawley rats approximately 21 days old and weighing between 45 and 55 grams, were obtained from Harlan, Italy (S. Pietro al Natisone, ITALY). During the study, the animals were maintained in accordance with the guidelines of the Italian Ministry of Health for the care and use of laboratory animals (Decreto legge 116/92). The animals were randomly divided into two treatment groups and kept in a controlled environment at a constant temperature of 21-23° C. with 12:12 light/dark exposure continuous period wherein the light exposure began at approximately 8:00 am and ended at approximately 8:00 pm. The animals were provided with water and food ad libitum consisting of an approximate 3200 calories/kg daily diet of standard pellet chow provided by Piccioni, Gessate-Milano, Italy (containing at least 19% protein, 3% fat and 56% carbohydrate).
(§2) Beginning on the 23rd day (i.e., the animals were 23 days old), 16 of the study animals were treated intraperitoneally (Ip) daily with 40 μg/kg of either saline or dexamethasone sodium phosphate (sold under the trademark Decadron® by Merck Pharmaceuticals, West Point, Pa.). Beginning on the 30th day (i.e., the animals were 30 days old), the subgroup of 16 studied animals was further divided into groups of 8 and treated subcutaneously three times daily (at approximately 9:00 am, 1:00 pm and 5:00 pm) with either 80 nmoles/kg of the preferred ghrelin analog [Aib^2, Glu^3(NH-hexyl)]hGhrelin(1-28)-NH2 (IPSEN, Milford, Mass.) dissolved in a sterile saline solution with 0.25% bovine serum albumin or vehicle (the saline-bovine serum albumin solution alone). This regimen continued for 24 days during which time the studied animals were weighed two times per week. At irregular intervals, the cumulative food intake for a 24-hour period of time was measured. Beginning on the 46th day (i.e., the animals were 46 days old), the length of the test and control animals from nose to anus was measured (hereinafter referred to as “the nose-anal length”). On the 47th day (i.e., the animals were 47 days old), all food was denied to the test subjects commencing at 8:00 am. Small samples of blood were taken via percutaneous puncture of the tail to assess blood glucose levels during the treatment period.
(§3) The test animals received two intravenous administrations of [Aib^2, Glu^3(NH-hexyl)]hGhrelin(1-28)-NH2 at approximately 9:00 am and 1:00 pm. The studied animals were sacrificed by rapid decapitation at approximately 2:00 pm, trunk blood collected for hormone level determinations, and the epididymal fat pads removed and weighed.
(§4) Unless otherwise stated, the results reported in FIGS. 3-6 are expressed as the mean±SEM of eight replicate test subjects. Data was analyzed for statistical significance by one-way ANOVA which determines the variation (variance) within the groups and how that variation translates into variation (i.e. differences) between the groups, taking into account how many subjects there are in each group. […] The linear correlation analysis was performed either by Pearson's parametric test or by Spearman's nonparametric test. A P value below 0.05 was considered significant.

[2] = Effects of pharmacological treatments on plasma hormones and glucose concentrations; format: in vivo, Sprague-Dawley rats; conditions: day 47, mean ± SEM of eight animals; for Glucose: at sacrifice; for Corticosterone / IGF-1 / Insulin: plasma at sacrifice
Experimental: as §1, §2, §3
Samples of trunk blood were taken from the test subjects via […]. The blood samples were collected in tubes containing EDTA, separated by centrifugation, and stored at −20° C. Plasma insulin, IGF-1, and corticosterone levels were all measured using commercial RIA kits (Insulin and Corticosterone kits were both obtained from ICN-Biomedicals, Asse-Relegem, BELGIUM and the rIGF-1 test kit was obtained from Mediagnostic GMbH, Tubingen, GERMANY). Glucose concentration was determined using the Glucotrend® Soft Test System blood glucose meter (Roche Diagnostics, Barcelona, SPAIN).
as §4

[3] = rat; cited from earlier work
[4] = 24-h food intake and food efficiency in treated young rats; format: in vivo, Sprague-Dawley rats
From the text: FIG. 4. Panel A: the effect of the different pharmacological treatment on 24-h food intake expressed as a percent of the control value. Data represented the mean±SEM of nine determinations performed at irregular intervals from day 33 to day 47 after birth. Panel B: the effect of the different pharmacological treatments on food efficacy calculated as a ratio between food intake (g) and […] measured over the same time interval at different stages of growth. Data represents the meant SEM of eight rats. *P<0.05; **<0.01 vs SAL-treated rats (Dunnett's test). Panel C: the effect of the different pharmacological treatments on the cumulative food intake measured over the indicated time intervals at different stages of growth.
Beginning on the 23rd day (i.e., the animals were 23 days old), 16 of the study animals were treated intraperitoneally (Ip) daily with 40 μg/kg of either saline or dexamethasone sodium phosphate (sold under the trademark Decadron® by Merck Pharmaceuticals, West Point, Pa.). Beginning on the 30th day (i.e., the animals were 30 days old), the subgroup of 16 studied animals was further divided into groups of 8 and treated subcutaneously three times daily (at approximately 9:00 am, 1:00 pm and 5:00 pm) with either 80 nmoles/kg of the preferred ghrelin analog [Aib^2, Glu^3(NH-hexyl)]hGhrelin(1-28)-NH2 (IPSEN, Milford, Mass.) dissolved in a sterile saline solution with 0.25% bovine serum albumin or vehicle (the saline-bovine serum albumin solution alone). This regimen continued for 24 days during which time the studied animals were weighed two times per week. At irregular intervals, the cumulative food intake for a 24-hour period of time was measured. Beginning on the 46th day (i.e., the animals were 46 days old), the length of the test and control animals from nose to anus was measured (hereinafter referred to as “the nose-anal length”). […]
Food efficiency was calculated as the ratio between body weight gain (in grams) and food intake (in grams) measured over the same time interval.

C[C@@H]1C[C@H]2[C@@H]3CCC4=CC(=O)C=C[C@]4(C)[C@@]3(F)[C@@H](O)C[C@]2(C)[C@@]1(O)C(=O)CO [Dexamethasone, 9-fluoro-11β,17,21-trihydroxy-16a-methylpregna-1,4-diene-3,20-dione, reference compound]
Final Body Weight [1]: 185.2 ± 4.2 g
Final Nose-Anal Length [1]: 17.8 ± 0.2 cm
Lee Obesity Index [1]: 321 ± 1.6
Growth Rate [1]: 5.6 ± 0.2 g/day
Epididymal Fat Pads [1]: 1.14 ± 0.06 g
Glucose [2]: 107 ± 6 mg/dL
Corticosterone [2]: 19 ± 2 ng/mL
IGF-1 [2]: 1257 ± 112 ng/mL
Insulin [2]: 50 ± 6 μIU/ml

GHRP-6
glucocorticoid-mediated GH-inhibition [3]: able to completely counteract

[Aib^2, Glu^3(NH-hexyl)]hGhrelin(1-28)-NH2
growth suppression induced by DEX ([1]; concomitant treatment with DEX, FIG. 3): reversed
Final Body Weight [1]: 230.8 ± 4.8 g
Final Nose-Anal Length [1]: 19.3 ± 0.1 cm
Lee Obesity Index [1]: 318 ± 1.4
Growth Rate [1]: 7.6 ± 0.3 g/day
Epididymal Fat Pads [1]: 1.31 ± 0.07 g
somatic growth as compared to SAL-treated rats ([1]; young male rats, FIG. 3, Dunnett's t test): significantly increased
Glucose [2]: 122 ± 3 mg/dL
Corticosterone [2]: 235 ± 23 ng/mL
IGF-1 [2]: 1653 ± 87 ng/mL
Insulin [2]: 40.4 ± 5.7 μIU/ml
food efficiency (ratio body weight gain / food intake) vs saline treatment ([4]; FIG. 4B, two out of three determinations): increased
cumulative 24-hour food intake vs saline-treated animals ([4]; after 10 days from beginning of dexamethasone treatment, FIG. 4A): increased
decrease of food efficiency induced by dexamethasone ([4]; co-administration with dexamethasone, FIG. 4B): able to reverse
